The source of these data is patent US9328111B2, “Substituted cycloocta[5,6]pyrido[4,3,2-de]phthalazines as PARP inhibitors” (BeiGene Ltd., priority 2011, dated 2016).

The structures appear in SMILES notation.

One test relates to PARP PARylation in HeLa cells. In words: PARylation assay in HeLa cells after H2O2. The test is classed as cell-based. Conditions: Homo sapiens, 200 μM H2O2. The procedure: HeLa cells were seeded into a 96-well plate with clear bottom and black wall at an initial concentration of 5000 cells/well in culture medium (100 μL of DMEM containing 10% FBS, 0.1 mg/mL penicillin-streptomycin, and 2 mML-glutamine). The plates were incubated for 4 h at 37° C. under 5% CO2 atmosphere, and then compounds were added with serial dilutions over eight points over a 0.01 nM-10 μM final concentration range in 0.1% DMSO/culture medium. The plate was then incubated for 18 h at 37° C. in 5% CO2. Then DNA damage was provoked by addition of 60 μL of H2O2 solution in PBS (final concentration 200 μM). As a negative control, cells untreated with H2O2 were used. The plate was kept at 37° C. for 5 min. Then the medium was gently removed by plate inversion, and the cells were fixed by addition of ice-cold MeOH (100 μL/well) and kept at −20° C. for 20 min. After removal of the fixative by plate inversion and washing 10 times with PBS (120 μL), the detection buffer (50 μL/well, containing PBS, Tween (0.1%), and BSA (1 mg/mL)) together with the primary PAR mAb (Alexis ALX-804-220, 1:2000), the secondary anti-mouse Alexa Fluor 488 antibody (MolecularProbes A11029, 1:2000), and nuclear dye DAPI (Molecular Probes D3571, 150 nM) were added. Following overnight incubation at 4° C. in the dark, removal of the solution, and washing 6 times with PBS (120 μL), the plate was read on an ArrayScan VTI (ThermoFisher). Monitoring for PAR polymer was by detection of Alexa488 at XF100_485_20, exposure time of 0.05 s, and identification of the nuclei was by tracking DAPI with XF100_386_23, exposure time of 0.01 s. The mean value of total intensity of cells was calculated by measuring the average of total intensity of nuclei over the total number of DAPI-labeled nuclei. The EC50 was determined on the basis of the residual enzyme activity in the presence of increasing PARPi concentration.
As to `CC1(C)CCC2=C(C1)c1n[nH]c(=O)c3cccc(c13)N2` [Example 1, 10,10-Dimethyl-8,9,10,11-tetrahydro-2H-pyridazino[5,4,3-kl]acridin-3(7H)-one], the EC50 – broadly, the midpoint of the concentration-response curve – is 0.8 nM.
Same read-out and setting: in the case of `O=c1[nH]nc2c3c(cccc13)NC1=C2CCCC1` [Example 2, 8,9,10,11-Tetrahydro-2H-pyridazino[5,4,3-kl]acridin-3 (7H)-one] it was 1.2 nM.
Take `O=c1[nH]nc2c3c(cccc13)NC1=C2CCCCCC1` [Example 3, 8,9,10,11,12,13-Hexahydro-2H-cycloocta[5,6]pyrido[4,3,2-de]phthalazin-3(7H)-one]: the midpoint of the response, the EC50, lay at 0.6 nM. Compared with the last compound, the EC50 is about 2-fold lower.
Same read-out and setting: in the case of `O=c1[nH]nc2c3c(cccc13)NC1=C2CCCCC1` [Example 4, 7,8,9,10,11,12-Hexahydrocyclohepta[5,6]pyrido[4,3,2-de]phthalazin-3(2H)-one] it was 0.75 nM; in that of `Cc1ccc2c(=O)[nH]nc3c2c1NC1=C3CCCC1` [Example 5, 6-Methyl-8,9,10,11-tetrahydro-2H-pyridazino[5,4,3-kl]acridin-3(7H)-one], 477 nM; in that of `O=c1[nH]nc2c3c(c(Br)ccc13)NC1=C2CCCCC1` [Example 6, 6-Bromo-7,8,9,10,11,12-hexahydrocyclohepta[5,6]pyrido[4,3,2-de]phthalazin-3(2H)-one], 139 nM.
The same measure, in the same setting: in the case of `O=c1[nH]nc2c3c(c(Br)ccc13)NC1=C2CCCC1` [Example 7, 6-Bromo-8,9,10,11-tetrahydro-2H-pyridazino[5,4,3-kl]acridin-3(7H)-one] it was 32 nM; in that of `O=c1[nH]nc2c3c(c(Cl)ccc13)NC1=C2CCCCC1` [Example 8, 6-Chloro-7,8,9,10,11,12-hexahydrocyclohepta[5,6]pyrido[4,3,2-de]phthalazin-3(2H)-one], 43.2 nM.
Same read-out and setting: in the case of `O=c1[nH]nc2c3c(c(Cl)ccc13)NC1=C2CCCC1` [Example 9, 6-Chloro-8,9,10,11-tetrahydro-2H-pyridazino[5,4,3-kl]acridin-3(7H)-one] it was 43.2 nM; in that of `O=c1[nH]nc2c3c(cccc13)NC1=C2CCC1` [Example 10, 7,8,9,10-Tetrahydrocyclopenta[5,6]pyrido[4,3,2-de]phthalazin-3(2H)-one], 4.6 nM.
The compound `O=c1[nH]nc2c3c(cccc13)NC1=C2c2ccccc2CC1` [Example 12, 8,9-Dihydro-2H-benzo[a]pyridazino[5,4,3-kl]acridin-3(7H)-one] gave an EC50 of 6.8 nM.
In turn, `CC(C)(C)OC(=O)N1CCC2=C(C1)Nc1cccc3c(=O)[nH]nc2c13` [Example 13, Tert-butyl 3-oxo-7,8,10,11-tetrahydro-2H-phthalazino[8,1-bc][1,7]naphthyridine-9(3H)-carboxylate] showed an EC50 of 0.7 nM.
The same measure, in the same setting: in the case of `O=c1[nH]nc2c3c(cccc13)NC1=C2CCNC1` [Example 14, 8,9,10,11-Tetrahydro-2H-phthalazino[8,1-bc][1,7]naphthyridin-3 (7H)-one] it was 14 nM.
Regarding `CC(C)(NC(=O)OCc1ccccc1)C(=O)N1CCC2=C(C1)Nc1cccc3c(=O)[nH]nc2c13` [Example 15, Benzyl(2-methyl-1-oxo-1-(3-oxo-10,11-dihydro-2H-phthalazino[8,1-bc][1,7]naphthyridin-9(3H,7H,8H)-yl)propan-2-yl)carbamate], the EC50 stood at 269 nM. Compared with the last compound, the EC50 is about 19-fold higher.
Still for that read-out and setting: in the case of `CC1(C(=O)N2CCC3=C(C2)Nc2cccc4c(=O)[nH]nc3c24)CC1` [Example 16, 9-(1-Methylcyclopropanecarbonyl)-8,9,10,11-tetrahydro-2H-phthalazino[8,1-bc][1,7]naphthyridin-3(7H)-one] it was 5.4 nM; in that of `CC1(C)C(C(=O)N2CCC3=C(C2)Nc2cccc4c(=O)[nH]nc3c24)C1(C)C` [Example 17, 9-(2,2,3,3-Tetramethylcyclopropanecarbonyl)-8,9,10,11-tetrahydro-2H-phthalazino[8,1-bc][1,7]naphthyridin-3(7H)-one], 0.9 nM; in that of `O=c1[nH]nc2c3c(cccc13)NC1=C2CCN(Cc2ccccc2)C1` [Example 18, 9-benzyl-8,9,10,11-tetrahydro-2H-phthalazino[8,1-bc][1,7]naphthyridin-3(7H)-one], 9.7 nM.

A further test deals with Tankyrase-2 (Homo sapiens (Human), UniProt Q9H2K2). In words: biochemical. Conditions: read-out: Tankyrase-2 Inhibition @ 50 nM.
Tankyrase-2, sequence (Q9H2K2 whole entry): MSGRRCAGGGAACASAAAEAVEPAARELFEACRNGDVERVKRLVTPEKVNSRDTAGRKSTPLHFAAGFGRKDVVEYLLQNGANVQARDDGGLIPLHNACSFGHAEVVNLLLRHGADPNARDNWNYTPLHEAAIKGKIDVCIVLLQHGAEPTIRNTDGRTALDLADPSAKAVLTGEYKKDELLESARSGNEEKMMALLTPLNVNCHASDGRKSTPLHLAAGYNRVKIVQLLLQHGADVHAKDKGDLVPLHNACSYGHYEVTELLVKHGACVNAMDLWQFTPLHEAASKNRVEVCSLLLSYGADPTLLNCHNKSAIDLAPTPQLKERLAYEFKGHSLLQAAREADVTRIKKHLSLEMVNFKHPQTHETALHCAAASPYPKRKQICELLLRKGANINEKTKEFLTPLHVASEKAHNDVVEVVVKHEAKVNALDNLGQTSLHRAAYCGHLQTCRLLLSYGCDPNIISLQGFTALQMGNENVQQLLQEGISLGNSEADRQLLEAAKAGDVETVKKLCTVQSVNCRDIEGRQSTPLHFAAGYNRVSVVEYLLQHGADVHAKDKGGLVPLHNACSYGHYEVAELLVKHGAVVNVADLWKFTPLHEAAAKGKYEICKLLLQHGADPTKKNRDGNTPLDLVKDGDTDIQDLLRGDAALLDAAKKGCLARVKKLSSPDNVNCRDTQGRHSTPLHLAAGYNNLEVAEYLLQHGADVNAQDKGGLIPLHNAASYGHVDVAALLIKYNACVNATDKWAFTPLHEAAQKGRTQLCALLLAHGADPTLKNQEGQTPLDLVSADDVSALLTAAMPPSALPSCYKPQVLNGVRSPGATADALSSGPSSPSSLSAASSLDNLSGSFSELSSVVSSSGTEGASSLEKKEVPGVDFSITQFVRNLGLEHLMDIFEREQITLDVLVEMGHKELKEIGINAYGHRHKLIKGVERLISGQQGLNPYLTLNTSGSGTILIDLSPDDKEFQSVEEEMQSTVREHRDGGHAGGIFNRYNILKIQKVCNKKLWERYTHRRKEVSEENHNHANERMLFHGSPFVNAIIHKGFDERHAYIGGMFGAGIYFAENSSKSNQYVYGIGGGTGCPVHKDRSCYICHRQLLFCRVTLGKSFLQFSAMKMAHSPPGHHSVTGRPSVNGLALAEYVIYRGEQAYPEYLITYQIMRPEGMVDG
As to `O=c1[nH]nc2c3c(c(Cl)ccc13)NC1=C2CCCCC1` [Example 8, 6-Chloro-7,8,9,10,11,12-hexahydrocyclohepta[5,6]pyrido[4,3,2-de]phthalazin-3(2H)-one], the inhibition (usually the change of the read-out against control, counted positive when it falls) at 0.05 µM amounted to 2.3%.
The same measure, in the same setting: for `O=c1[nH]nc2c3c(c(Cl)ccc13)NC1=C2CCCC1` [Example 9, 6-Chloro-8,9,10,11-tetrahydro-2H-pyridazino[5,4,3-kl]acridin-3(7H)-one] the value was 14.1%; for `O=c1[nH]nc2c3c(cccc13)NC1=C2c2ccccc2CC1` [Example 12, 8,9-Dihydro-2H-benzo[a]pyridazino[5,4,3-kl]acridin-3(7H)-one], 14.3%.
